Source: patent US10633407B2, “14-membered ketolides and methods of their preparation and use” (President and Fellows of Harvard College, priority 2014, dated 2020)
In brackets after ≈: the same amount, converted by molar mass.

Columns and labels:
Experiment in all cases: CLSI broth dilution MIC determination
Format in all cases: cell-based
[1] = test system: K. pneumoniae MP-548 clinical; conditions: Klebsiella pneumoniae, MP548CLINICAL, read-out: MIC
P. aeruginosa ATCC 27853 = conditions: Pseudomonas aeruginosa, ATCC27853; P. aeruginosa ATCC 27853 (MP-3); read-out: MIC
[2] = test system: A. baumannii MP-576 Clinical-MDR; conditions: Acinetobacter baumannii, read-out: MIC
[3] = test system: A. baumannii MP-577 Clinical-AZT low; conditions: Acinetobacter baumannii, read-out: MIC
[4] = test system: S. pyogenes Macrolide-resistant; conditions: Streptococcus pyogenes, S. pyogenes Macrolide-resistant (MP-625 UNT-014); read-out: MIC
[5] = test system: P. aeruginosa MP-8 PAO1:mex (mex-oprM-deletion); conditions: Pseudomonas aeruginosa, PAO1
S. pyogenes ATCC 19615 = conditions: Streptococcus pyogenes, ATCC19615, S. pyogenes ATCC 19615 (MP-19); read-out: MIC
[6] = test system: K. pneumoniae MP-546 Clinical-MDR; conditions: Klebsiella pneumoniae, read-out: MIC
[7] = test system: E. faecalis Vancomycin-resistant; conditions: Enterococcus faecalis, E. faecalis Vancomycin-resistant (UNT-039); read-out: MIC
E. faecalis ATCC 29212 = conditions: Enterococcus faecalis, ATCC29212, E. faecalis ATCC 29212 (MP-24); read-out: MIC
K. pneumoniae ATCC 10031 = conditions: Klebsiella pneumoniae, ATCC10031, K. pneumoniae ATCC 10031 (MP-14); read-out: MIC
S. aureus USA600, GISA = conditions: Staphylococcus aureus; S. aureus USA600, GISA (MP-619 UNT-120); read-out: MIC
Method in brief: (§1)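 Read-out is the MIC by broth dilution, done according to CLSI standard procedures, with azithromycin and solithromycin included as control macrolides in many runs.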

E. coli MP-541 clinical = conditions: Escherichia coli, MP541CLINICAL, read-out: MIC
Method in brief: as §1

S. aureus ATCC 29213 = conditions: Staphylococcus aureus, ATCC29213; S. aureus ATCC 29213 (MP-12); read-out: MIC
Method in brief: as §1

S. pneumoniae ATCC 49619 = conditions: Streptococcus pneumoniae, ATCC49619, S. pneumoniae ATCC 49619 (MP-21); read-out: MIC
Method in brief: as §1

E. coli ATCC 25922 = conditions: Escherichia coli, ATCC25922, E. coli ATCC 25922 (MP-4); read-out: MIC
Method in brief: as §1

S. aureus MRSA: USA100 = conditions: Staphylococcus aureus; S. aureus MRSA: USA100 (MP-618 UNT-096); read-out: MIC
Method in brief: as §1

[8] = test system: E. coli MP-532 clinical-cErmB; conditions: Escherichia coli
Method in brief: as §1

[9] = test system: S. pneumoniae mef A genotype (second strain so labelled); conditions: Streptococcus pneumoniae, second strain (MP-627 UNT-039), read-out: MIC
Method in brief: as §1

[10] = test system: S. aureus MP-17 ATCCBAA-977 (BAA 977 iErm); conditions: Staphylococcus aureus; S. aureus MP-17, ATCCBAA-977, iErm; read-out: MIC
Method in brief: as §1

[11] = test system: S. pneumoniae mef A genotype (first strain so labelled); conditions: Streptococcus pneumoniae, first strain (MP-626 UNT-038)
Method in brief: as §1

S. aureus MRSA: USA300 = conditions: Staphylococcus aureus; S. aureus MRSA: USA300 (MP-549, msr(a)); read-out: MIC
Method in brief: as §1

S. aureus erm A genotype = conditions: Staphylococcus aureus; S. aureus erm A genotype (MP-620 UNT-146); read-out: MIC
Method in brief: as §1

[12] = test system: S. aureus (MRSA) MP-513 ST-228 cErm (Clinical-cErm); conditions: Staphylococcus aureus, read-out: MIC
Method in brief: as §1

[13] = test system: E. coli MP-9 ATCC25922:tolC; conditions: Escherichia coli, ATCC25922
Method in brief: as §1

A. baumannii ATCC 19606 = conditions: Acinetobacter baumannii, ATCC19606; A. baumannii ATCC 19606 (MP-15); read-out: MIC
P. aeruginosa MP-7 PAO1 = conditions: Pseudomonas aeruginosa, read-out: MIC

Compound	MIC [1] [µg/mL]	MIC (P. aeruginosa ATCC 27853) [µg/mL]	MIC [2] [µg/mL]	MIC [3] [µg/mL]	MIC [4] [µg/mL]	MIC [5] [µg/mL]	MIC (S. pyogenes ATCC 19615) [µg/mL]	MIC [6] [µg/mL]	MIC [7] [µg/mL]	MIC (E. faecalis ATCC 29212) [µg/mL]	MIC (K. pneumoniae ATCC 10031) [µg/mL]	MIC (S. aureus USA600, GISA) [µg/mL]	MIC (E. coli MP-541 clinical) [µg/mL]	MIC (S. aureus ATCC 29213) [µg/mL]	MIC (S. pneumoniae ATCC 49619) [µg/mL]	MIC (E. coli ATCC 25922) [µg/mL]	MIC (S. aureus MRSA: USA100) [µg/mL]	MIC [8] [µg/mL]	MIC [9] [µg/mL]	MIC [10] [µg/mL]	further results
CC[C@H]1OC(=O)[C@H](C)C(=O)[C@H](C)[C@@H](O[C@@H]2OC(C)CC(N(C)C)C2O)[C@](C)(OC)C[C@@H](C)C(=O)[C@H](C)[C@H]2N(CC#CCn3cc(-c4cccc(N)n4)nn3)C(=O)O[C@]12C (stereo partly drawn) [FSM-100551]	32 (≈ 38.8 µM)	16 (≈ 19.4 µM)	> 64	16 (≈ 19.4 µM)	0.06 (≈ 0.0728 µM)	4 (≈ 4.85 µM)	< 0.03	> 64	4 (≈ 4.85 µM)	< 0.03	8 (≈ 9.71 µM)	64 (≈ 77.7 µM)	16 (≈ 19.4 µM)	0.06 (≈ 0.0728 µM)	< 0.03	8 (≈ 9.71 µM)	> 64	> 64	< 0.03	0.06 (≈ 0.0728 µM)	MIC [11]: < 0.03 µg/mL; MIC (S. aureus MRSA: USA300): 0.125 µg/mL (≈ 0.152 µM); MIC (S. aureus erm A genotype): > 64 µg/mL; MIC [12]: > 64 µg/mL; MIC [13]: 2 µg/mL (≈ 2.43 µM); MIC (A. baumannii ATCC 19606): 4 µg/mL (≈ 4.85 µM); MIC (P. aeruginosa MP-7 PAO1): 32 µg/mL (≈ 38.8 µM)
CC[C@H]1OC(=O)[C@@](C)(F)C(=O)[C@H](C)[C@@H](O[C@@H]2OC(C)CC(N(C)C)C2O)[C@](C)(OC)C[C@@H](C)C(=O)[C@H](C)[C@H]2N(CC#CCn3cc(-c4cc(F)ccn4)nn3)C(=O)O[C@]12C (stereo partly drawn) [FSM-100563]	64 (≈ 75.7 µM)	32 (≈ 37.9 µM)	> 64	32 (≈ 37.9 µM)	< 0.03	8 (≈ 9.47 µM)	< 0.03	> 64	2 (≈ 2.37 µM)	< 0.03	8 (≈ 9.47 µM)	16 (≈ 18.9 µM)	16 (≈ 18.9 µM)	0.06 (≈ 0.071 µM)	< 0.03	16 (≈ 18.9 µM)	32 (≈ 37.9 µM)	> 64	< 0.03	0.06 (≈ 0.071 µM)	MIC [11]: < 0.03 µg/mL; MIC (S. aureus MRSA: USA300): 0.125 µg/mL (≈ 0.148 µM); MIC (S. aureus erm A genotype): 16 µg/mL (≈ 18.9 µM); MIC [12]: 16 µg/mL (≈ 18.9 µM); MIC [13]: 2 µg/mL (≈ 2.37 µM); MIC (A. baumannii ATCC 19606): 8 µg/mL (≈ 9.47 µM); MIC (P. aeruginosa MP-7 PAO1): 64 µg/mL (≈ 75.7 µM)
CC[C@H]1OC(=O)[C@H](C)C(=O)[C@H](C)[C@@H](O[C@@H]2OC(C)CC(N(C)C)C2O)[C@](C)(OC)C[C@@H](C)C(=O)[C@H](C)[C@H]2N(CC#CCn3cc(-c4cc(F)ccn4)nn3)C(=O)O[C@]12C (stereo partly drawn) [FSM-100566]	64 (≈ 77.4 µM)	64 (≈ 77.4 µM)	> 64	64 (≈ 77.4 µM)	< 0.03	8 (≈ 9.67 µM)	< 0.03	> 64	8 (≈ 9.67 µM)	< 0.03	8 (≈ 9.67 µM)	64 (≈ 77.4 µM)	32 (≈ 38.7 µM)	0.06 (≈ 0.0726 µM)	< 0.03	32 (≈ 38.7 µM)	> 64	> 64	< 0.03	0.06 (≈ 0.0726 µM)	MIC [11]: < 0.03 µg/mL; MIC (S. aureus MRSA: USA300): 0.125 µg/mL (≈ 0.151 µM); MIC (S. aureus erm A genotype): > 64 µg/mL; MIC [12]: > 64 µg/mL; MIC [13]: 2 µg/mL (≈ 2.42 µM); MIC (A. baumannii ATCC 19606): 16 µg/mL (≈ 19.3 µM); MIC (P. aeruginosa MP-7 PAO1): > 64 µg/mL
